A short description of data set [1]: Stability of Cu-ATP solution, Hunter Lab L*a*b* color readings. Details: key to color reading "L": L* lightness: 100 = white to 0 = black; key to color reading "a": a*: negative = greener, positive = redder; key to color reading "b": b*: negative = bluer, positive = yellower. Conditions: full light, ambient room temperature. Type of data set: physicochemical. An excerpt: It should be noted that, where relevant, composition ingredients and the like are provided in weight percentages. Further, where applicable, color measurements were done on a Hunter Lab color meter. This color meter measures color on a scale defined as L*a*b* scale. The term “L” is from 100 to 0, representing white and black colors (lightness and darkness), respectively. A (−) value of “a” indicates a more green color. A (+) value of “a” indicates a more red color. A (−) value of “b” indicates a more blue color. A (+) value of “b” indicates a more yellow color. Various numeric values of “a” and “b” indicate degree of respective colors. Mixed colors are thus indicated by a mixed value of L*a*b* as will be noted in various examples below. The materials used had the following properties. Adenosine triphosphate disodium hydrate (molecular weight 551 Da), glutathione (molecular weight 307 Da), copper gluconate (molecular weight 453 Da, Cu=14%), copper amino acid chelate (copper 12%), fructose-1,6-diphosphate dicalcium (molecular weight 416 Da), zinc gluconate (molecular weight 455 Da, Zn=1 4%), manganese gluconate (molecular weight 445 Da, Mn=12%). The analysis of trace metals quoted in ppm in various examples, as noted below, are within +-10%.
The solution “C” obtained in Example 2 was stored in a beaker with a plastic film wrapped over it. The solution was stored in full light (fluorescent lamps) under ambient room temperature conditions. The color readings were measured periodically, and any visually observed discolorations, or precipitate formations, if any, were also recorded, as noted below.

Data set [2] in a line: pH of 1 wt % solution in water. Type of data set: physicochemical. Conditions: 1 wt % (1%) water solution.
For data set [3] the following is noted: from water solutions.
Data set [4] in a line: stability of water solution. It counts as physicochemical.

Regarding Copper ATP [Cu-ATP Solution], in data set [1] (1 Week), the “color reading "L"” value turned out to be 51.35, the “color reading "a"” value is −35.38 and the “color reading "b"” value is on record as −5.16. Moreover, in data set [1] (4 Weeks), the “color reading "L"” value is given as 50.54, the “color reading "a"” value is −36.08 and the “color reading "b"” value is −5.56. Further, in data set [1] (Initial), the “color reading "L"” value is given as 53.52, the “color reading "a"” value is given as −33.58 and the “color reading "b"” value is −4.19.
For `Nc1ncnc2c1ncn2[C@@H]1O[C@H](COP(=O)(O)OP(=O)(O)OP(=O)(O)O)[C@@H](O)[C@H]1O` [ATP, adenosine triphosphate], in data set [2], the “pH of 1 wt % solution in water” value is recorded as 2.0.
Take `NC(=O)c1cccnc1.O=C1O[C@H]([C@@H](O)CO)C(O)=C1O` [Niacinamide ascorbate]: the absorption into skin result in data set [3] was “rapidly absorbed”. Moreover, the “pH of 1 wt % solution in water” value in data set [2] came to 3.7. Moreover, the “stability of water solution” value in data set [4] was “good”.
For `O=C1O[C@H]([C@@H](O)CO)C(O)=C1O` [ascorbic acid], in data set [2], the “pH of 1 wt % solution in water” value is listed as 2.6. Also, the “stability of water solution” value in data set [4] was “poor”.
As to `O=C(O)[C@H](O)[C@@H](O)[C@H](O)[C@H](O)CO` [gluconic acid], the “pH of 1 wt % solution in water” value in data set [2] is given as 2.5.
Regarding `NC(=O)c1cccnc1` [niacinamide], the “pH of 1 wt % solution in water” value in data set [2] is recorded as 6.3. In addition, the “stability of water solution” value in data set [4] is listed as “good”.

Source of the values: US20060039887A1, “Cosmetic or pharmaceutical composition for skin care” (Infinity2 Health Sciences, Inc., priority 2004, published 2006).
